Patent US8592456B2 (4SC Discovery GmbH, priority 2011, dated 2013)
Like-named read-outs stand apart in the source and are kept apart here.

Test system: PBMC (T cell proliferation)
Assay: T cell proliferation assay, PHA-stimulated human PBMC (BrdU ELISA)
Assay type: cell-based
Conditions: 48 hours, BrdU
In short: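 Healthy-donor human PBMC, Ficoll-isolated, seeded 1×10^5 cells/well in RPMI1640 with 10% dialyzed FCS, stimulated with 2 μg/ml PHA alongside test compound. Proliferation read after 48 hours by BrdU ELISA.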

[1] = human PBMC, 2 μg/ml PHA, read-out: D: IC50 (Tcell proliferation)
[2] = PHA-stimulated human PBMC, column D, activity classes 1-4, read-out: IC50 (Tcell proliferation)

Row | Structure (SMILES) | IC50 [1] [nM] | IC50 [2] [nM]
1 | CCOC(=O)c1c(-c2c(Cl)cncc2Cl)noc1-c1cnn(-c2ccccc2F)c1C(F)(F)F [Example B-9, ethyl 3-(3,5-dichloropyridin-4-yl)-5-(1-(2-fluorophenyl)-5-(trifluoromethyl)-1H-pyrazol-4-yl)isoxazole-4-carboxylate] | 10 to 100 | –
2 | CON(C)C(=O)c1c(-c2c(F)cccc2Cl)noc1-c1cnn(-c2cccc(F)c2)c1C(F)(F)F [Example 135, 3-(2-chloro-6-fluorophenyl)-5-(1-(3-fluorophenyl)-5-(trifluoromethyl)-1H-pyrazol-4-yl)-N-methoxy-N-methylisoxazole-4-carboxamide] | 100 to 1000 | –
3 | Fc1cccc(-n2ncc(-c3onc(-c4c(F)cccc4Cl)c3-c3ccoc3)c2C(F)(F)F)c1 [Example I-13, 3-(2-chloro-6-fluorophenyl)-5-(1-(3-fluorophenyl)-5-(trifluoromethyl)-1H-pyrazol-4-yl)-4-(furan-3-yl)isoxazole] | – | 1000 to 10000
4 | O=C(c1c(-c2c(F)cccc2Cl)noc1-c1cnn(-c2ccccc2F)c1C(F)(F)F)N1CCN(Cc2cccc(Cl)c2)CC1 [Example 24, (3-(2-chloro-6-fluorophenyl)-5-(1-(2-fluorophenyl)-5-(trifluoromethyl)-1H-pyrazol-4-yl)isoxazol-4-yl)(4-(3-chlorobenzyl)piperazin-1-yl)methanone] | 100 to 1000 | –
5 | CCOC(=O)c1c(-c2ccc(Cl)cc2)noc1-c1cnn(-c2cccc(Cl)c2)c1C(F)(F)F [Example 77, ethyl 3-(4-chlorophenyl)-5-(1-(3-chlorophenyl)-5-(trifluoromethyl)-1H-pyrazol-4-yl)isoxazole-4-carboxylate] | 1000 to 10000 | –
6 | Fc1cccc(Cl)c1-c1noc(-c2cnn(-c3ccncc3)c2C(F)(F)F)c1-c1nnco1 [IB-16, 2-(3-(2-chloro-6-fluorophenyl)-5-(1-(pyridin-4-yl)-5-(trifluoromethyl)-1H-pyrazol-4-yl)isoxazol-4-yl)-1,3,4-oxadiazole] | – | 100 to 1000
7 | O=C(c1c(-c2c(F)cccc2Cl)noc1-c1cnn(-c2cccc(Cl)c2)c1C(F)(F)F)N1CCCO1 [Example 132, (3-(2-chloro-6-fluorophenyl)-5-(1-(3-chlorophenyl)-5-(trifluoromethyl)-1H-pyrazol-4-yl)isoxazol-4-yl)(isoxazolidin-2-yl)methanone] | 10 to 100 | –
8 | CCOC(=O)c1c(-c2c(F)cccc2Cl)noc1-c1cnn(-c2ccccc2Br)c1C(F)(F)F [Example B-72, ethyl 5-(1-(2-bromophenyl)-5-(trifluoromethyl)-1H-pyrazol-4-yl)-3-(2-chloro-6-fluorophenyl)isoxazole-4-carboxylate] | 100 to 1000 | –
9 | O=C(O)c1c(-c2ccccc2F)noc1-c1cnn(-c2cccc(F)c2)c1C(F)(F)F [Example 91, 3-(2-fluorophenyl)-5-(1-(3-fluorophenyl)-5-(trifluoromethyl)-1H-pyrazol-4-yl)isoxazole-4-carboxylic acid] | 1000 to 10000 | –
10 | CNC(=O)c1c(-c2c(Cl)cccc2Cl)noc1-c1cnn(-c2cccc(F)c2)c1C(F)(F)F [Example 110, 3-(2,6-dichlorophenyl)-5-(1-(3-fluorophenyl)-5-(trifluoromethyl)-1H-pyrazol-4-yl)-N-methylisoxazole-4-carboxamide] | 10 to 100 | –
11 | Fc1cccc(-n2ncc(-c3onc(-c4c(F)cccc4Cl)c3-c3nnn[nH]3)c2C(F)(F)F)c1 [Example I-2, 3-(2-chloro-6-fluorophenyl)-5-(1-(3-fluorophenyl)-5-(trifluoromethyl)-1H-pyrazol-4-yl)-4-(1H-tetrazol-5-yl)isoxazole] | – | 1000 to 10000
12 | CNC(=O)c1c(-c2ccccc2Cl)noc1-c1cnn(-c2cccc(Cl)c2)c1C(F)(F)F [Example B-63, 3-(2-chlorophenyl)-5-(1-(3-chlorophenyl)-5-(trifluoromethyl)-1H-pyrazol-4-yl)-N-methylisoxazole-4-carboxamide] | 100 to 1000 | –
13 | COC(=O)c1csc(-c2c(-c3c(F)cccc3Cl)noc2-c2cnn(-c3cccc(F)c3)c2C(F)(F)F)n1 [IB-2, methyl 2-{3-(2-chloro-6-fluorophenyl)-5-[1-(3-fluorophenyl)-5-(trifluoromethyl)-1H-pyrazol-4-yl]isoxazol-4-yl}-1,3-thiazole-4-carboxylate] | – | 100 to 1000
14 | CCOC(=O)c1c(-c2ccc(Cl)cc2Cl)noc1-c1cnn(-c2cccc(F)c2)c1C(F)(F)F [Example 112, ethyl 3-(2,4-dichlorophenyl)-5-(1-(3-fluorophenyl)-5-(trifluoromethyl)-1H-pyrazol-4-yl)isoxazole-4-carboxylate] | 100 to 1000 | –
15 | NC(=S)c1c(-c2c(F)cccc2Cl)noc1-c1cnn(-c2ccccc2Cl)c1C(F)(F)F [Example B-101, 3-(2-chloro-6-fluorophenyl)-5-(1-(2-chlorophenyl)-5-(trifluoromethyl)-1H-pyrazol-4-yl)isoxazole-4-carbothioamide] | 1000 to 10000 | –
16 | Fc1cccc(Cl)c1-c1noc(-c2cnn(-c3cccc(Cl)c3)c2C(F)(F)F)c1-c1nncs1 [IB-8, 3-(2-chloro-6-fluorophenyl)-5-(1-(3-chlorophenyl)-5-(trifluoromethyl)-1H-pyrazol-4-yl)-4-(1,3,4-thiadiazol-2-yl)isoxazole] | – | < 10

Row | Structure (SMILES) | IC50 [1] [nM] | IC50 [2] [nM]
17 | CCOC(=O)c1c(-c2onc(-c3c(F)cccc3Cl)c2C(=O)OC)cnn1CC(C)C [Example 29] | 1000 to 10000 | –
18 | O=CNc1c(-c2c(F)cccc2Cl)noc1-c1cnn(-c2cccc(Cl)c2)c1C(F)(F)F [Example B-48, N-(3-(2-chloro-6-fluorophenyl)-5-(1-(3-chlorophenyl)-5-(trifluoromethyl)-1H-pyrazol-4-yl)isoxazol-4-yl)formamide] | 1000 to 10000 | –
19 | CCOC(=O)c1c(-c2c(Cl)cncc2Cl)noc1-c1cnn(-c2cccc(NC(C)=O)c2)c1C(F)(F)F [Example B-11, ethyl 5-(1-(3-acetamidophenyl)-5-(trifluoromethyl)-1H-pyrazol-4-yl)-3-(3,5-dichloropyridin-4-yl)isoxazole-4-carboxylate] | 100 to 1000 | –
20 | COC(=O)c1c(-c2ccccc2)noc1-c1cnn(-c2ccccc2F)c1C(F)(F)F [Example 61, methyl 5-(1-(2-fluorophenyl)-5-(trifluoromethyl)-1H-pyrazol-4-yl)-3-phenylisoxazole-4-carboxylate] | 1000 to 10000 | –
21 | O=C(c1c(-c2c(F)cccc2Cl)noc1-c1cnn(-c2ccccc2F)c1C(F)(F)F)N1CCCCC1 [Example 21, (3-(2-chloro-6-fluorophenyl)-5-(1-(2-fluorophenyl)-5-(trifluoromethyl)-1H-pyrazol-4-yl)isoxazol-4-yl)(piperidin-1-yl)methanone] | 10 to 100 | –
22 | CC(=O)Nc1c(-c2c(F)cccc2Cl)noc1-c1cnn(-c2cccc(Cl)c2)c1C(F)(F)F [Example B-39, N-(3-(2-chloro-6-fluorophenyl)-5-(1-(3-chlorophenyl)-5-(trifluoromethyl)-1H-pyrazol-4-yl)-isoxazol-4-yl)acetamide] | 1000 to 10000 | –
23 | COC(=O)c1c(-c2c(F)cccc2Cl)noc1-c1cnn(-c2nccc(C(F)(F)F)n2)c1C(F)(F)F [Example 67, methyl 3-(2-chloro-6-fluorophenyl)-5-(5-(trifluoromethyl)-1-(4-(trifluoromethyl)pyrimidin-2-yl)-1H-pyrazol-4-yl)isoxazole-4-carboxylate] | 100 to 1000 | –
24 | COC(=O)c1c(-c2c(F)cccc2Cl)noc1-c1cnn(-c2ccc(F)cc2)c1C(F)(F)F [Example 3, methyl 3-(2-chloro-6-fluorophenyl)-5-(1-(4-fluorophenyl)-5-(trifluoromethyl)-1H-pyrazol-4-yl)isoxazole-4-carboxylate] | 10 to 100 | –
25 | CCOC(=O)c1c(-c2c(Cl)cncc2Cl)noc1-c1cnn(-c2cccc(Cl)c2)c1C(F)(F)F [Example B-7, ethyl 5-(1-(3-chlorophenyl)-5-(trifluoromethyl)-1H-pyrazol-4-yl)-3-(3,5-dichloropyridin-4-yl)isoxazole-4-carboxylate] | 1000 to 10000 | –
26 | CCOC(=O)c1c(-c2ccncc2F)noc1-c1cnn(-c2cccc(NC(C)=O)c2)c1C(F)(F)F [Example B-6, ethyl 5-(1-(3-acetamidophenyl)-5-(trifluoromethyl)-1H-pyrazol-4-yl)-3-(3-fluoropyridin-4-yl)isoxazole-4-carboxylate] | 100 to 1000 | –
27 | Fc1cccc(-n2ncc(-c3onc(-c4c(F)cccc4Cl)c3-c3ccccc3)c2C(F)(F)F)c1 [Example I-14, 3-(2-chloro-6-fluorophenyl)-5-(1-(3-fluorophenyl)-5-(trifluoromethyl)-1H-pyrazol-4-yl)-4-phenylisoxazole] | – | 100 to 1000
28 | CCOC(=O)c1c(-c2c(Cl)cncc2Cl)noc1-c1cnn(-c2ccccn2)c1C(F)(F)F [Example B-5, ethyl 3-(3,5-dichloropyridin-4-yl)-5-(1-(pyridin-2-yl)-5-(trifluoromethyl)-1H-pyrazol-4-yl)isoxazole-4-carboxylate] | 1000 to 10000 | –
29 | CSC(=O)c1c(-c2c(F)cccc2Cl)noc1-c1cnn(-c2cccc(F)c2)c1C(F)(F)F [Example 128, S-methyl 3-(2-chloro-6-fluorophenyl)-5-(1-(3-fluorophenyl)-5-(trifluoromethyl)-1H-pyrazol-4-yl)isoxazole-4-carbothioate] | < 10 | –
30 | COC(=O)c1c(-c2ccccc2Cl)noc1-c1cnn(-c2cccc(F)c2)c1C(F)(F)F [Example 95, methyl 3-(2-chlorophenyl)-5-(1-(3-fluorophenyl)-5-(trifluoromethyl)-1H-pyrazol-4-yl)isoxazole-4-carboxylate] | < 10 | –
31 | COC(=O)c1c(-c2c(F)cccc2Cl)noc1-c1cnn(-c2cccc(C(F)(F)F)c2)c1C(F)(F)F [Example 82, methyl 3-(2-chloro-6-fluorophenyl)-5-(5-(trifluoromethyl)-1-(3-(trifluoromethyl)phenyl)-1H-pyrazol-4-yl)isoxazole-4-carboxylate] | 1000 to 10000 | –
32 | CSC(=O)c1c(-c2c(F)cccc2Cl)noc1-c1cnn(-c2ccccc2F)c1C(F)(F)F [Example 130, S-methyl 3-(2-chloro-6-fluorophenyl)-5-(1-(2-fluorophenyl)-5-(trifluoromethyl)-1H-pyrazol-4-yl)isoxazole-4-carbothioate] | < 10 | –
